Literature values as cited in PMC10289903 (Investigational New Drugs, 2023).

System: platinum-resistant or platinum-refractory recurrent ovarian cancer
Conditions: placebo plus gemcitabine arm; 95% CI 1.8–3.8; cited from earlier work

Nc1ccn([C@@H]2O[C@H](CO)[C@@H](O)C2(F)F)c(=O)n1 [gemcitabine, reference compound]
PFS: 3.0 months
